Measured values published in patent US20240239861A1, “GLUCAGON-RECEPTOR SELECTIVE POLYPEPTIDES AND METHODS OF USE THEREOF” (i2O Therapeutics, Inc., priority 2016, published 2024).
pEC50: −log10 of the molar value. Where a SMILES comes first, the peptide text is derived from it. [ ]: non-standard residue; d: D form. Aib = CC(C)(N)C(=O)O

Legend:
human GCGR = human GCGR (Homo sapiens, UniProt P47871); assay: Peptide-receptor mediated cAMP accumulation (LANCE Ultra cAMP) in CHO-K1 cells transfected with human GCGR; assay type: cell-based; settings: Table 3
human GLP-1R = human GLP-1R (Homo sapiens, UniProt P43220); assay: Peptide-receptor mediated cAMP accumulation (LANCE Ultra cAMP) in CHO-K1 cells transfected with human GLP-1R; assay type: cell-based; settings: hGLP1 pEC50 (cAMP mean (n = 3): 11 point curve starting at 1 nM, Table 3)
Sequence of human GLP-1R (P43220 24-463): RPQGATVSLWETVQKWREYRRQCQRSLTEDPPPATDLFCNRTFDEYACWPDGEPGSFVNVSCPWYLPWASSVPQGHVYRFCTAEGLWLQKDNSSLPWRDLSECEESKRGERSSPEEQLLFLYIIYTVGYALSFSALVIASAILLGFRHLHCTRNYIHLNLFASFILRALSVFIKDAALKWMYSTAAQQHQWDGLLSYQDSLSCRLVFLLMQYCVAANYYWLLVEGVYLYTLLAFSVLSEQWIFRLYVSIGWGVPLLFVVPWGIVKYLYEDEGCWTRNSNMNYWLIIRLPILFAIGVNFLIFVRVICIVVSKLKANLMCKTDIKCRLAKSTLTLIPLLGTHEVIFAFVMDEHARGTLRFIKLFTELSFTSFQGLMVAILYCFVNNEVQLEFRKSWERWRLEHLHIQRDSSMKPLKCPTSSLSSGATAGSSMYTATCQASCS

Sequence of human GCGR (P47871 26-477): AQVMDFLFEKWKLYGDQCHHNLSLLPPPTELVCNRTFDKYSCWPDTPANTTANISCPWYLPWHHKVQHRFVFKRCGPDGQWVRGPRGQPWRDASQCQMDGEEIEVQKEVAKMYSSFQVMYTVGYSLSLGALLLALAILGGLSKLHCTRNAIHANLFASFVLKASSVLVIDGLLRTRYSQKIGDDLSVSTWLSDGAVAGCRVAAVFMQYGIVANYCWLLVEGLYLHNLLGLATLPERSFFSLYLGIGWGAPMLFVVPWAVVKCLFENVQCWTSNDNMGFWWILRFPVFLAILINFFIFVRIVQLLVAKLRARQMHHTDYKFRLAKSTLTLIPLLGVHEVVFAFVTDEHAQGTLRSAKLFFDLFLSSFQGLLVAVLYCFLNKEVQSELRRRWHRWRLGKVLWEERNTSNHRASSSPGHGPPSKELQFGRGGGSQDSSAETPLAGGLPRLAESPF

Row | Compound | pEC50 (human GCGR) | pEC50 (human GLP-1R)
1 | CC(C)C[C@H](NC(=O)[C@H](Cc1ccc(O)cc1)NC(=O)[C@H](CCCCN)NC(=O)[C@H](CO)NC(=O)[C@H](Cc1ccc(O)cc1)NC(=O)[C@H](CC(=O)O)NC(=O)[C@H](CO)NC(=O)[C@@H](NC(=O)[C@H](Cc1ccccc1)NC(=O)[C@@H](NC(=O)CNC(=O)[C@H](Cc1c[nH]cn1)NC(=O)[C@@H](NC(=O)[C@@H](N)Cc1ccc(O)cc1)[C@@H](C)O)[C@@H](C)O)[C@@H](C)O)C(=O)N[C@@H](CC(=O)O)C(=O)N[C@@H](CO)C(=O)N[C@@H](C)C(=O)N[C@@H](CCCNC(=N)N)C(=O)N[C@@H](C)C(=O)N[C@@H](CCC(N)=O)C(=O)N[C@@H](CCC(=O)O)C(=O)N[C@@H](Cc1ccccc1)C(=O)N[C@H](C(=O)N[C@@H](CCCCN)C(=O)N[C@@H](Cc1c[nH]c2ccccc12)C(=O)N[C@@H](CC(C)C)C(=O)N[C@@H](CCC(=O)O)C(=O)N[C@@H](CC(=O)O)C(=O)N[C@@H](CCC(=O)O)C(=O)N1CCC[C@H]1C(=O)N[C@@H](CO)C(=O)N[C@@H](CO)C(=O)NCC(=O)N[C@@H](C)C(=O)N1CCC[C@H]1C(=O)N1CCC[C@H]1C(=O)N1CCC[C@H]1C(=O)N[C@@H](CO)C(=O)O)C(C)C [Compound A63] (H-YTHGTFTSDYSKYLDSARAQEFVKWLEDEPSSGAPPPS-OH) | 10.40 | < 9.00
2 | CC(C)C[C@H](NC(=O)[C@H](Cc1ccc(O)cc1)NC(=O)[C@H](CCCCN)NC(=O)[C@H](CO)NC(=O)[C@H](Cc1ccc(O)cc1)NC(=O)[C@H](CC(=O)O)NC(=O)[C@H](CO)NC(=O)[C@@H](NC(=O)[C@H](Cc1ccccc1)NC(=O)[C@@H](NC(=O)CNC(=O)[C@H](Cc1c[nH]cn1)NC(=O)[C@@H](NC(=O)[C@@H](N)Cc1ccc(O)cc1)[C@@H](C)O)[C@@H](C)O)[C@@H](C)O)C(=O)N[C@@H](CC(=O)O)C(=O)NC(C)(C)C(=O)N[C@@H](C)C(=O)N[C@@H](CCCNC(=N)N)C(=O)N[C@@H](C)C(=O)N[C@@H](CCC(N)=O)C(=O)N[C@@H](CCC(=O)O)C(=O)N[C@@H](Cc1ccccc1)C(=O)N[C@H](C(=O)NC(C)(C)C(=O)N[C@@H](Cc1c[nH]c2ccccc12)C(=O)N[C@@H](CC(C)C)C(=O)N[C@@H](CCC(=O)O)C(=O)N[C@@H](CC(=O)O)C(=O)N[C@@H](CCC(=O)O)C(=O)N1CCC[C@H]1C(=O)N[C@@H](CO)C(=O)N[C@@H](CO)C(=O)NCC(=O)N[C@@H](C)C(=O)N1CCC[C@H]1C(=O)N1CCC[C@H]1C(=O)N1CCC[C@H]1C(=O)N[C@@H](CO)C(=O)O)C(C)C [Compound A64] (H-YTHGTFTSDYSKYLD[Aib]ARAQEFV[Aib]WLEDEPSSGAPPPS-OH; N-terminus assumed) | 10.70 | < 9.00
3 | CC(C)C[C@H](NC(=O)[C@H](Cc1ccc(O)cc1)NC(=O)[C@H](CCCCN)NC(=O)[C@H](CO)NC(=O)[C@H](Cc1ccc(O)cc1)NC(=O)[C@H](CC(=O)O)NC(=O)[C@H](CO)NC(=O)[C@@H](NC(=O)[C@H](Cc1ccccc1)NC(=O)[C@@H](NC(=O)CNC(=O)[C@H](Cc1c[nH]cn1)NC(=O)[C@H](CO)NC(=O)[C@@H](N)Cc1ccc(O)cc1)[C@@H](C)O)[C@@H](C)O)C(=O)N[C@@H](CC(=O)O)C(=O)NC(C)(C)C(=O)N[C@@H](C)C(=O)N[C@@H](CCCNC(=N)N)C(=O)N[C@@H](C)C(=O)N[C@@H](CCC(N)=O)C(=O)N[C@@H](CCC(=O)O)C(=O)N[C@@H](Cc1ccccc1)C(=O)N[C@H](C(=O)NC(C)(C)C(=O)N[C@@H](Cc1c[nH]c2ccccc12)C(=O)N[C@@H](CC(C)C)C(=O)N[C@@H](CCC(=O)O)C(=O)N[C@@H](CC(=O)O)C(=O)N[C@@H](CCC(=O)O)C(=O)N1CCC[C@H]1C(=O)N[C@@H](CCCCN)C(=O)N[C@@H](CO)C(=O)N[C@@H](CCCCN)C(=O)N[C@@H](CO)C(=O)N1CCC[C@H]1C(=O)N1CCC[C@H]1C(=O)N1CCC[C@H]1C(=O)N[C@@H](CO)C(N)=O)C(C)C [Compound A67] (H-YSHGTFTSDYSKYLD[Aib]ARAQEFV[Aib]WLEDEPKSKSPPPS-NH2; N-terminus assumed) | 10.90 | < 9.00
4 | CC(C)C[C@H](NC(=O)[C@H](Cc1ccc(O)cc1)NC(=O)[C@H](CCCCN)NC(=O)[C@H](CO)NC(=O)[C@H](Cc1ccc(O)cc1)NC(=O)[C@H](CC(=O)O)NC(=O)[C@H](CO)NC(=O)[C@@H](NC(=O)[C@H](Cc1ccccc1)NC(=O)[C@@H](NC(=O)CNC(=O)[C@H](Cc1c[nH]cn1)NC(=O)[C@H](CO)NC(=O)[C@@H](N)Cc1ccc(O)cc1)[C@@H](C)O)[C@@H](C)O)C(=O)N[C@@H](CC(=O)O)C(=O)NC(C)(C)C(=O)N[C@@H](C)C(=O)N[C@@H](CCCNC(=N)N)C(=O)N[C@@H](C)C(=O)N[C@@H](CCC(N)=O)C(=O)N[C@@H](CCC(=O)O)C(=O)N[C@@H](Cc1ccccc1)C(=O)N[C@H](C(=O)NC(C)(C)C(=O)N[C@@H](Cc1c[nH]c2ccccc12)C(=O)N[C@@H](CC(C)C)C(=O)N[C@@H](CCC(=O)O)C(=O)N[C@@H](CC(=O)O)C(=O)N[C@@H](CCC(=O)O)C(=O)N1CCC[C@H]1C(=O)N[C@@H](CCCCN)C(=O)N[C@@H](CO)C(=O)N[C@@H](CCCCN)C(=O)N[C@@H](CCC(=O)O)C(=O)N1CCC[C@H]1C(=O)N1CCC[C@H]1C(=O)N1CCC[C@H]1C(=O)N[C@@H](CO)C(N)=O)C(C)C [Compound A68] (H-YSHGTFTSDYSKYLD[Aib]ARAQEFV[Aib]WLEDEPKSKEPPPS-NH2; N-terminus assumed) | 11.30 | < 9.00
5 | CC(C)C[C@H](NC(=O)[C@H](Cc1ccc(O)cc1)NC(=O)[C@H](CCCCN)NC(=O)[C@H](CO)NC(=O)[C@H](Cc1ccc(O)cc1)NC(=O)[C@H](CC(=O)O)NC(=O)[C@H](CO)NC(=O)[C@@H](NC(=O)[C@H](Cc1ccccc1)NC(=O)[C@@H](NC(=O)CNC(=O)[C@H](Cc1c[nH]cn1)NC(=O)[C@H](CO)NC(=O)[C@@H](N)Cc1ccc(O)cc1)[C@@H](C)O)[C@@H](C)O)C(=O)N[C@@H](CC(=O)O)C(=O)N[C@@H](CO)C(=O)N[C@@H](C)C(=O)N[C@@H](CCCNC(=N)N)C(=O)N[C@@H](C)C(=O)N[C@@H](CCC(N)=O)C(=O)N[C@@H](CCC(=O)O)C(=O)N[C@@H](Cc1ccccc1)C(=O)N[C@H](C(=O)N[C@@H](CCCCN)C(=O)N[C@@H](Cc1c[nH]c2ccccc12)C(=O)N[C@@H](CC(C)C)C(=O)N[C@@H](CCC(=O)O)C(=O)N[C@@H](CC(=O)O)C(=O)N[C@@H](CCC(=O)O)C(=O)N1CCC[C@H]1C(=O)N[C@@H](CCCCN)C(=O)N[C@@H](CO)C(=O)N[C@@H](CCCCN)C(=O)N[C@@H](CCC(=O)O)C(=O)N1CCC[C@H]1C(=O)N1CCC[C@H]1C(=O)N1CCC[C@H]1C(=O)N[C@@H](CO)C(=O)O)C(C)C [Compound A69] (H-YSHGTFTSDYSKYLDSARAQEFVKWLEDEPKSKEPPPS-OH; N-terminus assumed) | 11.80 | < 9.00
6 | CC(C)C[C@H](NC(=O)[C@H](Cc1ccc(O)cc1)NC(=O)[C@H](CCCCN)NC(=O)[C@H](CO)NC(=O)[C@H](Cc1ccc(O)cc1)NC(=O)[C@H](CC(=O)O)NC(=O)[C@H](CO)NC(=O)[C@@H](NC(=O)[C@H](Cc1ccccc1)NC(=O)[C@@H](NC(=O)CNC(=O)[C@H](Cc1c[nH]cn1)NC(=O)[C@H](CO)NC(=O)[C@@H](N)Cc1ccc(O)cc1)[C@@H](C)O)[C@@H](C)O)C(=O)N[C@@H](CC(=O)O)C(=O)N[C@@H](CO)C(=O)N[C@@H](C)C(=O)N[C@@H](CCCNC(=N)N)C(=O)N[C@@H](C)C(=O)N[C@@H](CCC(N)=O)C(=O)N[C@@H](CCC(=O)O)C(=O)N[C@@H](Cc1ccccc1)C(=O)N[C@H](C(=O)N[C@@H](CCCCN)C(=O)N[C@@H](Cc1c[nH]c2ccccc12)C(=O)N[C@@H](CC(C)C)C(=O)N[C@@H](CCC(=O)O)C(=O)N[C@@H](CC(=O)O)C(=O)N[C@@H](CCC(=O)O)C(=O)N1CCC[C@H]1C(=O)N[C@@H](CCCCN)C(=O)N[C@@H](CO)C(=O)N[C@@H](CCCCN)C(=O)N[C@@H](C)C(=O)N1CCC[C@H]1C(=O)N1CCC[C@H]1C(=O)N1CCC[C@H]1C(=O)N[C@@H](CO)C(=O)O)C(C)C [Compound A71] (H-YSHGTFTSDYSKYLDSARAQEFVKWLEDEPKSKAPPPS-OH; N-terminus assumed) | 11.70 | < 9.00
7 | CC(C)C[C@H](NC(=O)[C@H](Cc1ccc(O)cc1)NC(=O)[C@H](CCCCN)NC(=O)[C@H](CO)NC(=O)[C@H](Cc1ccc(O)cc1)NC(=O)[C@H](CC(=O)O)NC(=O)[C@H](CO)NC(=O)[C@@H](NC(=O)[C@H](Cc1ccccc1)NC(=O)[C@@H](NC(=O)CNC(=O)[C@H](Cc1c[nH]cn1)NC(=O)[C@H](CO)NC(=O)[C@@H](N)Cc1ccc(O)cc1)[C@@H](C)O)[C@@H](C)O)C(=O)N[C@@H](CC(=O)O)C(=O)N[C@@H](CO)C(=O)N[C@@H](C)C(=O)N[C@@H](CCCNC(=N)N)C(=O)N[C@@H](C)C(=O)N[C@@H](CCC(N)=O)C(=O)N[C@@H](CCC(=O)O)C(=O)N[C@@H](Cc1ccccc1)C(=O)N[C@H](C(=O)N[C@@H](CCCCN)C(=O)N[C@@H](Cc1c[nH]c2ccccc12)C(=O)N[C@@H](CC(C)C)C(=O)N[C@@H](CCC(=O)O)C(=O)N[C@@H](CC(=O)O)C(=O)N[C@@H](CCC(=O)O)C(=O)N1CCC[C@H]1C(=O)N[C@@H](CCCCN)C(=O)N[C@@H](CO)C(=O)N[C@@H](CCCCN)C(=O)N[C@@H](C)C(=O)N1CCC[C@H]1C(=O)N1CCC[C@H]1C(=O)N1CCC[C@H]1C(=O)N[C@@H](CO)C(N)=O)C(C)C [Compound A74] (H-YSHGTFTSDYSKYLDSARAQEFVKWLEDEPKSKAPPPS-NH2; N-terminus assumed) | 11.60 | < 9.00
